From US20260137703A1, “2-AMINO-PYRIDO[2,3-D]PYRIMIDIN-7(8H)-ONE AND 7-AMINO-1-PYRIMIDO[4,5-D]PYRIMIDIN-2(1 H)-ONE DERIVATIVES AS EGFR INHIBITORS FOR THE TREATMENT OF CANCER” (Cancer Research Technology Limited, priority 2022, published 2026)
Where two headings read alike, the source gives them in different places.

Key:
[1] = biological target: T1, Phospho-EGFR (Tyr1068) in H1975 cells (Homo sapiens, UniProt P00533, L858R/T790M); assay: HTRF pEGFR/total EGFR in H1975 cells; format: cell-based; conditions: ratio pEGFR/total EGFR, compound 3 hours
T1 construct: host or cells: H1975
T1 sequence (P00533 25-1210 T790M/L858R): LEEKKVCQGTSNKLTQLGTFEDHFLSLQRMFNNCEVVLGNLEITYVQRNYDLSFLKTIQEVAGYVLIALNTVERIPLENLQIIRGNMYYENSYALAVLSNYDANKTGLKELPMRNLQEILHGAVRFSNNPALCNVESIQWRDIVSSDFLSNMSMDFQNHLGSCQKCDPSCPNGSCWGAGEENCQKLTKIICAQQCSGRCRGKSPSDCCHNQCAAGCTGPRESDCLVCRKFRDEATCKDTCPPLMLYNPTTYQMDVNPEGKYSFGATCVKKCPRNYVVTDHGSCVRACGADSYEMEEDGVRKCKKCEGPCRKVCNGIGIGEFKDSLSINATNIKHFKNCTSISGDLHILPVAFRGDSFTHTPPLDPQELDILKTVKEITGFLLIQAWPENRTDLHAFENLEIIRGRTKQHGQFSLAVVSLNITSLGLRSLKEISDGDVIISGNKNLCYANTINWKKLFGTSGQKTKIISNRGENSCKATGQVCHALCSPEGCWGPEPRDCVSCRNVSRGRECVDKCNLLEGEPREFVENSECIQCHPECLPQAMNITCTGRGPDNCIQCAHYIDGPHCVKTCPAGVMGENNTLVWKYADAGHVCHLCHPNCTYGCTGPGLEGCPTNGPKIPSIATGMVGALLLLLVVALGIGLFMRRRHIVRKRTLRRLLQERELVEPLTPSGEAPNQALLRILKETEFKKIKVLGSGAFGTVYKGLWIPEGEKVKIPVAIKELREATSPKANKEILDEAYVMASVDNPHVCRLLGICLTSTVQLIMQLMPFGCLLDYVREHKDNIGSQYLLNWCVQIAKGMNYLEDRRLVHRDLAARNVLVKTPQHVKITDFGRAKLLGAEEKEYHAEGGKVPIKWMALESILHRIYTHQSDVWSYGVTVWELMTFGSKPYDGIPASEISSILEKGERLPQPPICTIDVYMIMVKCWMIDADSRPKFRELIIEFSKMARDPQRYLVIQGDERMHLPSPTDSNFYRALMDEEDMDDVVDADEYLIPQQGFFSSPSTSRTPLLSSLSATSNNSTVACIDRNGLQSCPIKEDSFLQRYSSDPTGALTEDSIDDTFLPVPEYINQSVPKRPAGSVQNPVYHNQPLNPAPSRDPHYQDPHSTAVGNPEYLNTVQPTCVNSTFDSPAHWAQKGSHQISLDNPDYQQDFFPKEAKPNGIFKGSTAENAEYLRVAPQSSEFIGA
Method in brief: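 H1975 cells (EGFR L858R/T790M) treated 3 h with compound in 0.1% DMSO, in duplicate, 24 h after plating. Lysates assayed by HTRF for pEGFR (Tyr1068) and total EGFR at 665/620 nm; values are pEGFR/total EGFR ratio as percent of 0 μM control.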

[2] = biological target: CtermHisTag-mEGFR Wild type (Homo sapiens, UniProt P00533)
Sequence of CtermHisTag-mEGFR Wild type (P00533 whole entry): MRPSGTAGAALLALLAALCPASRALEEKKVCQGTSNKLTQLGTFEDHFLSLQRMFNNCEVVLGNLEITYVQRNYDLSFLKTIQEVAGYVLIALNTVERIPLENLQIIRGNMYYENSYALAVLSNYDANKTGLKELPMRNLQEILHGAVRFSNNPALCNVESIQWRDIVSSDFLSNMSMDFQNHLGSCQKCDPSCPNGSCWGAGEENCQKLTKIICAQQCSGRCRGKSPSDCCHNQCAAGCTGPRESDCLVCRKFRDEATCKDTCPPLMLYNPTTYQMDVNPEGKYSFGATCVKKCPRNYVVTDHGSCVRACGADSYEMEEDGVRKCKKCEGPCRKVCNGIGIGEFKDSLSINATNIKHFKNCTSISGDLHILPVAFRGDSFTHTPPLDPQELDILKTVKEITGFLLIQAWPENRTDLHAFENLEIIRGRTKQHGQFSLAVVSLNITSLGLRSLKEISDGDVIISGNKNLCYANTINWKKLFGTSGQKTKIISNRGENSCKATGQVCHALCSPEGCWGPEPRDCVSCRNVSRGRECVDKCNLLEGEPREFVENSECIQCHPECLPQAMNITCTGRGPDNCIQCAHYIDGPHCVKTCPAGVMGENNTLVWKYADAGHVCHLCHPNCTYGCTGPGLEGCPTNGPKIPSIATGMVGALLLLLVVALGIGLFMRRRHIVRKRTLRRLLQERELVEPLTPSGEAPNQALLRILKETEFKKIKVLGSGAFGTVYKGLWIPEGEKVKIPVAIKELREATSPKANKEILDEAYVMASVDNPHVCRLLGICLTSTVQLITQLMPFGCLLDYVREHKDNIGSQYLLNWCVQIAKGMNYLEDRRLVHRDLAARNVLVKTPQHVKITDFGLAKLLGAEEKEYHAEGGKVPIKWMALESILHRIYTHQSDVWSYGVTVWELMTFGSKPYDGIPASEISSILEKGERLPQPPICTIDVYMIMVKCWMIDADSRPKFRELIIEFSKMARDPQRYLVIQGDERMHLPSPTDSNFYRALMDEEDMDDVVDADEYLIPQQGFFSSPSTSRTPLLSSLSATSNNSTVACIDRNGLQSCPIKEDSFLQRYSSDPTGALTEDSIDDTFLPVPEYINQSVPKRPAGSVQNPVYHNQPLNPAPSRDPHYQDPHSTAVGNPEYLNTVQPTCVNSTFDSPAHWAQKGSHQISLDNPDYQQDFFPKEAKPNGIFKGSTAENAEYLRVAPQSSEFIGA

[3] = biological target: T2, Phospho-EGFR (Tyr1068) in H1975 C797S cells (CRISPR-edited EGFR C797S) (Homo sapiens, UniProt P00533, C797S/L858R/T790M); assay: HTRF pEGFR/total EGFR in H1975 C797S cells; format: cell-based; conditions: ratio pEGFR/total EGFR, compound 3 hours
T2 construct: host or cells: H1975 C797S (CRISPR-edited)
T2 sequence (P00533 25-1210 T790M/C797S/L858R): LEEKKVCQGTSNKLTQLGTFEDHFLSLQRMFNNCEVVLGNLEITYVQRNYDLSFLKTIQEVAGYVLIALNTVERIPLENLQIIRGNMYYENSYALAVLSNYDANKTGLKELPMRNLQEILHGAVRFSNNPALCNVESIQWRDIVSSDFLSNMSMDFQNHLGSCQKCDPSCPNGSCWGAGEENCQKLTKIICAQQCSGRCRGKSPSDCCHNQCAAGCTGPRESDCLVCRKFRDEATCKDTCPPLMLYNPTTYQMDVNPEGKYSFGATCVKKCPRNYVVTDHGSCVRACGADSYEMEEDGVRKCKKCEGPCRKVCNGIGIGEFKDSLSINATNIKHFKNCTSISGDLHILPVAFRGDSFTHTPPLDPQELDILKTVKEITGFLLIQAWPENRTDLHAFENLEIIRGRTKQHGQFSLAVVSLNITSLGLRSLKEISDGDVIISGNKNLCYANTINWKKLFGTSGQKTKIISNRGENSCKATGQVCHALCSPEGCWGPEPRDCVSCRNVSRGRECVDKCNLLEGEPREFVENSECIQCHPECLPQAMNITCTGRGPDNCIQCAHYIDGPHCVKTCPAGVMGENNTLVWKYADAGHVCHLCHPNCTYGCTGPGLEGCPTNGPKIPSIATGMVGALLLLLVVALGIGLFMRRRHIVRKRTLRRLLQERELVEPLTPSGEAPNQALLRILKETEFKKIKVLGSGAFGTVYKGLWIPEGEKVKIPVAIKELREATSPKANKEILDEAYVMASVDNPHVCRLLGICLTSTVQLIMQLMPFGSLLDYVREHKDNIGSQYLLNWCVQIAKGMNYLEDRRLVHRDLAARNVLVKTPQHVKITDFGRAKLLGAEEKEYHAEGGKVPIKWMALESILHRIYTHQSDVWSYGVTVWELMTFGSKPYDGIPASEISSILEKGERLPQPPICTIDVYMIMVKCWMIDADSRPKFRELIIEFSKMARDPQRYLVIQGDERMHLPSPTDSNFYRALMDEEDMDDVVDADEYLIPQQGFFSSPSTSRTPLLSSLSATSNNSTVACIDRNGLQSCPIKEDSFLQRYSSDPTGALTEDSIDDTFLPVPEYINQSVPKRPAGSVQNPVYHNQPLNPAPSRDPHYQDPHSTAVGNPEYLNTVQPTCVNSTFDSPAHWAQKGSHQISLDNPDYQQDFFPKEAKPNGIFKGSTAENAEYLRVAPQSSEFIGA
Method in brief: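 Adhered H1975 C797S cells got compound for 3 h in duplicate at 0.1% DMSO final, then were lysed 30 min at room temperature. HTRF kits quantified phospho-EGFR (Tyr1068) and total EGFR (665/620 nm); results are pEGFR/total EGFR ratio as percent of 0 μM control.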

Molecule: CC(C)[Si](C#Cc1cc(=O)n2c3nc(ncc13)Nc1ccc(N3CCN(C)CC3)c(c1)COCCC2)(C(C)C)C(C)C
- ring closure, isolated yield (from CC(C)[Si](C#Cc1cc(=O)[nH]c2nc(Nc3ccc(N4CCN(C)CC4)c(COCCCO)c3)ncc12)(C(C)C)C(C)C, other bond, 13-membered ring, PPh3/DIAD, THF, 24.0 mM): 29%

Molecule: CC(C)[Si](C#Cc1cc(=O)n2c3nc(ncc13)Nc1ccc(N3CCN(C)CC3)c(c1)NCCCC2)(C(C)C)C(C)C
- ring closure, isolated yield (from CC(C)[Si](C#Cc1cc(=O)[nH]c2nc(Nc3ccc(N4CCN(C)CC4)c(NCCCCO)c3)ncc12)(C(C)C)C(C)C, other bond, 13-membered ring, PPh3/DIAD, THF, 24.0 mM): 38%

Molecule: CC(C)[Si](C#Cc1cc(=O)n2c3nc(ncc13)Nc1ccc(N3CCN(C)CC3)c(c1)OCC=CC2)(C(C)C)C(C)C
- ring closure, isolated yield (from CC(C)[Si](C#Cc1cc(=O)[nH]c2nc(Nc3ccc(N4CCN(C)CC4)c(OC/C=C\CO)c3)ncc12)(C(C)C)C(C)C, other bond, 13-membered ring, PPh3/DIAD, THF, 24.0 mM): 55%

Molecule: CC(C)[Si](C#Cc1cc(=O)n2c3nc(ncc13)Nc1ccc(N3CCN(C)CC3)c(c1)OCCCC2)(C(C)C)C(C)C
- ring closure, isolated yield (from CC(C)[Si](C#Cc1cc(=O)[nH]c2nc(Nc3ccc(N4CCN(C)CC4)c(OCCCCO)c3)ncc12)(C(C)C)C(C)C, other bond, 13-membered ring, PPh3/DIAD, THF, 25.0 mM): 42%

Molecule: CC(C)[Si](C#Cc1cc(=O)n2c3nc(ncc13)Nc1ccc(N3CCN(C)CC3)c(c1)OCCCCC2)(C(C)C)C(C)C
- ring closure, isolated yield (from CC(C)[Si](C#Cc1cc(=O)[nH]c2nc(Nc3ccc(N4CCN(C)CC4)c(OCCCCCO)c3)ncc12)(C(C)C)C(C)C, other bond, 14-membered ring, PPh3/DIAD, THF, 24.3 mM): 22%

Molecule: CC(C)[Si](C#Cc1cc(=O)n2c3nc(ncc13)Nc1ccc(N3CCN(C)CC3)c(c1)OCCC[C@H]2C)(C(C)C)C(C)C
- ring closure, isolated yield (from CC(C)[Si](C#Cc1cc(=O)[nH]c2nc(Nc3ccc(N4CCN(C)CC4)c(OCCC[C@H](C)O)c3)ncc12)(C(C)C)C(C)C, other bond, 13-membered ring, PPh3/DIAD, THF, 24.2 mM): 18%

Molecule: CC(C)[Si](C#Cc1cc(=O)n2c3nc(ncc13)Nc1ccc(N3CCN(C)CC3)c(c1)S(=O)(=O)NCCC2)(C(C)C)C(C)C
- ring closure, isolated yield (from CC(C)[Si](C#Cc1cc(=O)[nH]c2nc(Nc3ccc(N4CCN(C)CC4)c(S(=O)(=O)NCCCO)c3)ncc12)(C(C)C)C(C)C, other bond, 13-membered ring, PPh3/DIAD, THF, 24.3 mM): 15%

Molecule: CC(C)[Si](C#Cc1cc(=O)n2c3nc(ncc13)Nc1cccc(c1)COCC=CC2)(C(C)C)C(C)C
- ring closure, isolated yield (from CC(C)[Si](C#Cc1cc(=O)[nH]c2nc(Nc3cccc(COC/C=C\CO)c3)ncc12)(C(C)C)C(C)C, other bond, 14-membered ring, PPh3/DIAD, THF, 24.0 mM): 56%

Molecule: CC(C)[Si](C#Cc1cc(=O)n2c3nc(ncc13)Nc1cccc(c1)OCC=CC2)(C(C)C)C(C)C
- ring closure, isolated yield (from CC(C)[Si](C#Cc1cc(=O)n(C/C=C\CO)c2nc(Nc3cccc(O)c3)ncc12)(C(C)C)C(C)C, ether bond, 13-membered ring, PPh3/DIAD, THF, 25.0 mM): 33%
- ring closure, isolated yield (from CC(C)[Si](C#Cc1cc(=O)n(C/C=C\CO)c2nc(Nc3cccc(O)c3)ncc12)(C(C)C)C(C)C, ether bond, 13-membered ring, PPh3/DIAD, THF, 278.0 mM): 52%

Molecule: CC(C)[Si](C#Cc1cc(=O)n2c3nc(ncc13)Nc1cccc(c1)OCCC2)(C(C)C)C(C)C
- ring closure, isolated yield (from CC(C)[Si](C#Cc1cc(=O)n(CCCO)c2nc(Nc3cccc(O)c3)ncc12)(C(C)C)C(C)C, ether bond, 12-membered ring, PPh3/DIAD, THF, 52.0 mM): 31%

Molecule: CC(C)[Si](C#Cc1cc(=O)n2c3nc(ncc13)Nc1cccc(c1)OC[C@H]1CC[C@H](C1)C2)(C(C)C)C(C)C
- ring closure, isolated yield (from CC(C)[Si](C#Cc1cc(=O)[nH]c2nc(Nc3cccc(OC[C@H]4CC[C@@H](CO)C4)c3)ncc12)(C(C)C)C(C)C, other bond, 14-membered ring, PPh3/DIAD, THF, 183.0 mM): 26%

Molecule: CC1CCCCOc2cc(ccc2N2CCN(C)CC2)Nc2ncc3c(C#C[Si](C(C)C)(C(C)C)C(C)C)cc(=O)n1c3n2 (centres unmarked)
- ring closure, isolated yield (from CC(O)CCCCOc1cc(Nc2ncc3c(C#C[Si](C(C)C)(C(C)C)C(C)C)cc(=O)[nH]c3n2)ccc1N1CCN(C)CC1, other bond, 14-membered ring, PPh3/DIAD, THF, 24.0 mM): 19%

Molecule: COCCN1CCN(c2ccc3cc2NC(=O)CCCn2c(=O)cc(C#C[Si](C(C)C)(C(C)C)C(C)C)c4cnc(nc42)N3)CC1
- ring closure, isolated yield (from COCCN1CCN(c2ccc(Nc3ncc4c(C#C[Si](C(C)C)(C(C)C)C(C)C)cc(=O)[nH]c4n3)cc2NC(=O)CCCO)CC1, other bond, 13-membered ring, PPh3/DEAD, THF, 25.7 mM): 42%

Molecule: Cc1c(C#C[Si](C(C)C)(C(C)C)C(C)C)c2cnc3nc2n(c1=O)CC=CCOc1cccc(c1)N3
- ring closure, isolated yield (from Cc1c(C#C[Si](C(C)C)(C(C)C)C(C)C)c2cnc(Nc3cccc(O)c3)nc2n(C/C=C\CO)c1=O, ether bond, 13-membered ring, PPh3/DIAD, THF, 180.0 mM): 52%

Molecule: Cc1c(C#C[Si](C(C)C)(C(C)C)C(C)C)c2cnc3nc2n(c1=O)CCCCCOc1cc(ccc1N1CCN(C)CC1)N3
- ring closure, isolated yield (from Cc1c(C#C[Si](C(C)C)(C(C)C)C(C)C)c2cnc(Nc3ccc(N4CCN(C)CC4)c(OCCCCCO)c3)nc2[nH]c1=O, other bond, 14-membered ring, PPh3/DEAD, THF, 94.8 mM): 51%

Molecule: 1^6-methyl-3^4-(4-methylpiperazin-1-yl)-1^5-((triisopropylsilyl)ethynyl)-1^7,1^8-dihydro-4-oxa-2-aza-1(2,8)-pyrido[2,3-d]pyrimidina-3(1,3)-benzenacyclooctaphan-1^7-one
- ring closure, isolated yield (other bond, 13-membered ring, PPh3/DIAD, THF, 107.0 mM): 56%

Molecule: 3^4-(4-(2-Methoxyethyl)piperazin-1-yl)-1^5-((triisopropylsilyl)ethynyl)-1^7,1^8-dihydro-4-oxa-2-aza-1(2,8)-pyrido[2,3-d]pyrimidina-3(1,3)-benzenacyclooctaphan-1^7-one
- ring closure, isolated yield (other bond, 13-membered ring, PPh3/DEAD, THF, 83.2 mM): 49%

Molecule: 3^4-(4-Methylpiperazin-1-yl)-1^5-((triisopropylsilyl)ethynyl)-1^7,1^8-dihydro-2,6-diaza-1(2,8)-pyrido[2,3-d]pyrimidina-3(1,3)-benzenacyclooctaphane-1^7,7-dione
- ring closure, isolated yield (other bond, 13-membered ring, PPh3/DEAD, DCM, 130.0 mM): 38%

Molecule: 3^4-(4-Methylpiperazin-1-yl)-1^5-((triisopropylsilyl)ethynyl)-1^7,1^8-dihydro-4,7-dioxa-2-aza-1(2,8)-pyrido[2,3-d]pyrimidina-3(1,3)-benzenacyclononaphan-1^7-one
- ring closure, isolated yield (other bond, 14-membered ring, PPh3/DEAD, THF, 134.0 mM): 29%

Molecule: 3^4-(4-Methylpiperazin-1-yl)-1^5-((triisopropylsilyl)ethynyl)-1^7,1^8-dihydro-4-oxa-2-aza-1(2, 8)-pyrido[2,3-d]pyrimidina-3(1,3)-benzenacyclodecaphan-1^7-one
- ring closure, isolated yield (other bond, 15-membered ring, PPh3/DEAD, THF, 158.0 mM): 41%

Molecule: 3^4-(4-Methylpiperazin-1-yl)-1^5-[2-(triisopropylsilyl)ethynyl]-1^7,1^8-dihydro-2,4-diaza-1(2,8)-pyrido[2,3-d]pyrimidine-3(1,3)-benzenacyclooctaphane-1^7,5-dione
- ring closure, isolated yield (other bond, 13-membered ring, PPh3/DEAD, THF, 162.0 mM): 62%

Molecule: 3^4-(4-methylpiperazin-1-yl)-1^5-((triisopropylsilyl)ethynyl)-1^7,1^8-dihydro-2,5-diaza-1(2,8)-pyrido[2,3-d]pyrimidina-3(1,3)-benzenacyclooctaphane-1^7,4-dione
- ring closure, isolated yield (other bond, 13-membered ring, PPh3/DIAD, THF, 43.7 mM): 20%

Molecule: 3^4-(4-methylpiperazin-1-yl)-1^5-((triisopropylsilyl)ethynyl)-1^7,1^8-dihydro-6-oxa-2-aza-1(2, 8)-pyrido[2,3-d]pyrimidina-3(1,3)-benzenacyclooctaphan-1^7-one
- ring closure, isolated yield (other bond, 13-membered ring, PPh3/DEAD, THF, 82.8 mM): 77%

Molecule: 4-Methyl-3^4-(4-methylpiperazin-1-yl)-1^5-((triisopropylsilyl)ethynyl)-1^7,1^8-dihydro-2,4-diaza-1(2,8)-pyrido[2,3-d]pyrimidina-3(1,3)-benzenacyclooctaphane-1^7,5-dione
- ring closure, isolated yield (other bond, 13-membered ring, PPh3/DIAD, THF, 158.0 mM): 38%

Molecule: 5-Methyl-3^4-(4-methylpiperazin-1-yl)-1^5-((triisopropylsilyl)ethynyl)-1^7,1^8-dihydro-2,5-diaza-1(2,8)-pyrido[2,3-d]pyrimidina-3(1,3)-benzenacyclooctaphane-1^7,6-dione
- ring closure, isolated yield (other bond, 13-membered ring, PPh3/DEAD, THF, 158.0 mM): 75%

Molecule: C=Cc1c(-c2ccccc2Cl)c(=O)n(C)c2nc(Nc3ccc(N4CCN(C)CC4)cc3OC)ncc12 [Example 171, 6-(2-chlorophenyl)-5-ethenyl-2-{[2-methoxy-4-(4-methylpiperazin-1-yl)phenyl]amino}-8-methylpyrido[2,3-d]pyrimidin-7-one]
- IC50 [1]: > 3000 nM
- IC50 [2]: > 10000 nM

Molecule: C#Cc1cc(=O)n(C2CCCC2)c2nc(Nc3cccc(N(C)[C@H]4C[C@@H](CS(C)(=O)=O)C4)c3)ncc12 [Example 203]
- IC50 [3]: > 3000 nM
- IC50 [1]: > 3000 nM
- IC50 [2]: < 1000 nM

Molecule: (5^1S,5^3R)-1^4-(4-Methylpiperazin-1-yl)-3^5-((triisopropylsilyl)ethynyl)-3^7,3^8-dihydro-7-oxa-2-aza-3(2,8)-pyrido[2,3-d]pyrimidina-1(1,3)-benzena-5(1,3)-cyclopentanacycloheptaphan-3^7-one
- ring closure, isolated yield (other bond, 14-membered ring, PPh3/DIAD, THF, 93.0 mM): 17%
